Experimental data from patent publication US20100267561A1, “HERBICIDAL PYRIDAZINONE DERIVATIVES” (priority 2007, published 2010).

Experiments:
Assay in all cases: Test E pre-/postemergence plant response
Assay type in all cases: in vivo
[1] = system: surinam grass (Brachiaria decumbens); conditions: scale 0 to 100
Procedure, shortened: (§1)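 Formulated in a non-phytotoxic solvent mixture containing surfactant, compound was applied to soil at planting or sprayed on emerged plants at the 1- to 4-leaf stage. Visual comparison with controls followed 14 to 21 days in the greenhouse; 0 = no effect, 100 = complete control.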

[2] = system: black mustard (Brassica nigra); conditions: scale 0 to 100
Procedure, shortened: as §1

[3] = system: common groundsel (Senecio vulgaris); conditions: Postemergence, scale 0 to 100
Procedure, shortened: as §1

[4] = system: purple nutsedge (Cyperus rotundus); conditions: scale 0 to 100
Procedure, shortened: as §1

[5] = system: Italian ryegrass (Lolium multiflorum); conditions: scale 0 to 100
Procedure, shortened: as §1

[6] = system: naked crabgrass (Digitaria nuda); conditions: scale 0 to 100
Procedure, shortened: as §1

[7] = system: broadleaf signalgrass (Brachiaria platyphylla); conditions: scale 0 to 100
Procedure, shortened: as §1

[8] = system: green foxtail (Setaria viridis); conditions: scale 0 to 100
Procedure, shortened: as §1

[9] = system: common mallow (Malva sylvestris); conditions: scale 0 to 100
Procedure, shortened: as §1

[10] = system: large crabgrass (Digitaria sanguinalis); conditions: scale 0 to 100
Procedure, shortened: as §1

[11] = system: barnyardgrass (Echinochloa crus-galli); conditions: scale 0 to 100
Procedure, shortened: as §1

[12] = system: pitted morningglory (Ipomoea lacunosa); conditions: scale 0 to 100
Procedure, shortened: as §1

[13] = system: annual bluegrass (Poa annua); conditions: scale 0 to 100
Procedure, shortened: as §1

[14] = system: johnsongrass (Sorghum halepense); conditions: scale 0 to 100
Procedure, shortened: as §1

[15] = system: common purslane (Portulaca oleracea); conditions: scale 0 to 100
Procedure, shortened: as §1

[16] = system: dallisgrass (Paspalum dilatatum); conditions: scale 0 to 100
Procedure, shortened: as §1

[17] = system: itchgrass (Rottboellia cochinchinensis); conditions: scale 0 to 100
Procedure, shortened: as §1

Cc1cc(-c2ccc(Cl)cc2)nn1-c1c(OS(=O)(=O)c2ccccc2)cnn(C)c1=O [Compound 35]
Plant response rating, Surinam Grass ([1]; 16 g ai/ha, Preemergence): 95 | Plant response rating, Surinam Grass ([1]; 31 g ai/ha, Preemergence): 100 | Plant response rating, Surinam Grass ([1]; 62 g ai/ha, Preemergence): 100 | Plant response rating, Surinam Grass ([1]; Postemergence, 8 g ai/ha): 70 | Plant response rating, Surinam Grass ([1]; Postemergence, 16 g ai/ha): 75 | Plant response rating, Surinam Grass ([1]; Postemergence, 31 g ai/ha): 80 | Plant response rating, Surinam Grass ([1]; Postemergence, 62 g ai/ha): 90 | Plant response rating, Mustard, Black ([2]; 8 g ai/ha, Preemergence): 0 | Plant response rating, Mustard, Black ([2]; 16 g ai/ha, Preemergence): 0 | Plant response rating, Mustard, Black ([2]; 31 g ai/ha, Preemergence): 0 | Plant response rating, Mustard, Black ([2]; 62 g ai/ha, Preemergence): 0 | Plant response rating, Mustard, Black ([2]; Postemergence, 8 g ai/ha): 0 | Plant response rating, Mustard, Black ([2]; Postemergence, 16 g ai/ha): 0 | Plant response rating, Mustard, Black ([2]; Postemergence, 31 g ai/ha): 0 | Plant response rating, Mustard, Black ([2]; Postemergence, 62 g ai/ha): 0 | Plant response rating, Groundsel ([3]; 8 g ai/ha): 0 | Plant response rating, Groundsel ([3]; 16 g ai/ha): 0 | Plant response rating, Nutsedge, Purple ([4]; 16 g ai/ha, Preemergence): 0 | Plant response rating, Nutsedge, Purple ([4]; 62 g ai/ha, Preemergence): 0 | Plant response rating, Nutsedge, Purple ([4]; Postemergence, 8 g ai/ha): 0 | Plant response rating, Nutsedge, Purple ([4]; Postemergence, 16 g ai/ha): 0 | Plant response rating, Nutsedge, Purple ([4]; Postemergence, 31 g ai/ha): 0 | Plant response rating, Nutsedge, Purple ([4]; Postemergence, 62 g ai/ha): 0 | Plant response rating, Ryegrass, Italian ([5]; 16 g ai/ha, Preemergence): 98 | Plant response rating, Ryegrass, Italian ([5]; 31 g ai/ha, Preemergence): 100 | Plant response rating, Ryegrass, Italian ([5]; 62 g ai/ha, Preemergence): 100 | Plant response rating, Ryegrass, Italian ([5]; Postemergence, 8 g ai/ha): 20 | Plant response rating, Ryegrass, Italian ([5]; Postemergence, 16 g ai/ha): 20 | Plant response rating, Ryegrass, Italian ([5]; Postemergence, 31 g ai/ha): 60 | Plant response rating, Ryegrass, Italian ([5]; Postemergence, 62 g ai/ha): 95 | Plant response rating, Crabgrass, Naked ([6]; 8 g ai/ha, Preemergence): 75 | Plant response rating, Crabgrass, Naked ([6]; 16 g ai/ha, Preemergence): 98 | Plant response rating, Crabgrass, Naked ([6]; 31 g ai/ha, Preemergence): 100 | Plant response rating, Crabgrass, Naked ([6]; 62 g ai/ha, Preemergence): 100 | Plant response rating, Crabgrass, Naked ([6]; Postemergence, 8 g ai/ha): 50 | Plant response rating, Crabgrass, Naked ([6]; Postemergence, 16 g ai/ha): 50 | Plant response rating, Crabgrass, Naked ([6]; Postemergence, 31 g ai/ha): 95 | Plant response rating, Crabgrass, Naked ([6]; Postemergence, 62 g ai/ha): 95 | Plant response rating, Signalgrass ([7]; 16 g ai/ha, Preemergence): 80 | Plant response rating, Signalgrass ([7]; 31 g ai/ha, Preemergence): 100 | Plant response rating, Signalgrass ([7]; 62 g ai/ha, Preemergence): 100 | Plant response rating, Signalgrass ([7]; Postemergence, 8 g ai/ha): 60 | Plant response rating, Signalgrass ([7]; Postemergence, 16 g ai/ha): 70 | Plant response rating, Signalgrass ([7]; Postemergence, 31 g ai/ha): 75 | Plant response rating, Signalgrass ([7]; Postemergence, 62 g ai/ha): 100 | Plant response rating, Foxtail, Green ([8]; 8 g ai/ha, Preemergence): 15 | Plant response rating, Foxtail, Green ([8]; 16 g ai/ha, Preemergence): 35 | Plant response rating, Foxtail, Green ([8]; 31 g ai/ha, Preemergence): 90 | Plant response rating, Foxtail, Green ([8]; 62 g ai/ha, Preemergence): 98 | Plant response rating, Foxtail, Green ([8]; Postemergence, 8 g ai/ha): 40 | Plant response rating, Foxtail, Green ([8]; Postemergence, 16 g ai/ha): 60 | Plant response rating, Foxtail, Green ([8]; Postemergence, 31 g ai/ha): 65 | Plant response rating, Foxtail, Green ([8]; Postemergence, 62 g ai/ha): 75 | Plant response rating, Mallow ([9]; 62 g ai/ha, Preemergence): 0 | Plant response rating, Mallow ([9]; Postemergence, 8 g ai/ha): 0 | Plant response rating, Mallow ([9]; Postemergence, 16 g ai/ha): 0 | Plant response rating, Mallow ([9]; Postemergence, 31 g ai/ha): 0 | Plant response rating, Mallow ([9]; Postemergence, 62 g ai/ha): 0 | Plant response rating, Crabgrass, Large ([10]; 8 g ai/ha, Preemergence): 20 | Plant response rating, Crabgrass, Large ([10]; 16 g ai/ha, Preemergence): 20 | Plant response rating, Crabgrass, Large ([10]; 31 g ai/ha, Preemergence): 95 | Plant response rating, Crabgrass, Large ([10]; 62 g ai/ha, Preemergence): 100 | Plant response rating, Crabgrass, Large ([10]; Postemergence, 8 g ai/ha): 50 | Plant response rating, Crabgrass, Large ([10]; Postemergence, 16 g ai/ha): 60 | Plant response rating, Crabgrass, Large ([10]; Postemergence, 31 g ai/ha): 75 | Plant response rating, Crabgrass, Large ([10]; Postemergence, 62 g ai/ha): 80 | Plant response rating, Barnyardgrass ([11]; 8 g ai/ha, Preemergence): 40 | Plant response rating, Barnyardgrass ([11]; 16 g ai/ha, Preemergence): 80 | Plant response rating, Barnyardgrass ([11]; 31 g ai/ha, Preemergence): 95 | Plant response rating, Barnyardgrass ([11]; 62 g ai/ha, Preemergence): 100 | Plant response rating, Barnyardgrass ([11]; Postemergence, 8 g ai/ha): 60 | Plant response rating, Barnyardgrass ([11]; Postemergence, 16 g ai/ha): 75 | Plant response rating, Barnyardgrass ([11]; Postemergence, 31 g ai/ha): 100 | Plant response rating, Barnyardgrass ([11]; Postemergence, 62 g ai/ha): 100 | Plant response rating, Morningglory ([12]; 16 g ai/ha, Preemergence): 0 | Plant response rating, Morningglory ([12]; 31 g ai/ha, Preemergence): 0 | Plant response rating, Morningglory ([12]; 62 g ai/ha, Preemergence): 0 | Plant response rating, Morningglory ([12]; Postemergence, 8 g ai/ha): 0 | Plant response rating, Morningglory ([12]; Postemergence, 16 g ai/ha): 0 | Plant response rating, Morningglory ([12]; Postemergence, 31 g ai/ha): 0 | Plant response rating, Morningglory ([12]; Postemergence, 62 g ai/ha): 0 | Plant response rating, Bluegrass ([13]; 8 g ai/ha, Preemergence): 0 | Plant response rating, Bluegrass ([13]; 16 g ai/ha, Preemergence): 0 | Plant response rating, Bluegrass ([13]; 31 g ai/ha, Preemergence): 0 | Plant response rating, Bluegrass ([13]; 62 g ai/ha, Preemergence): 0 | Plant response rating, Bluegrass ([13]; Postemergence, 8 g ai/ha): 0 | Plant response rating, Bluegrass ([13]; Postemergence, 16 g ai/ha): 0 | Plant response rating, Bluegrass ([13]; Postemergence, 31 g ai/ha): 0 | Plant response rating, Bluegrass ([13]; Postemergence, 62 g ai/ha): 0 | Plant response rating, Johnsongrass ([14]; 16 g ai/ha, Preemergence): 75 | Plant response rating, Johnsongrass ([14]; 31 g ai/ha, Preemergence): 80 | Plant response rating, Johnsongrass ([14]; 62 g ai/ha, Preemergence): 90 | Plant response rating, Johnsongrass ([14]; Postemergence, 8 g ai/ha): 40 | Plant response rating, Johnsongrass ([14]; Postemergence, 16 g ai/ha): 50 | Plant response rating, Johnsongrass ([14]; Postemergence, 31 g ai/ha): 70 | Plant response rating, Johnsongrass ([14]; Postemergence, 62 g ai/ha): 98 | Plant response rating, Purslane ([15]; 16 g ai/ha, Preemergence): 0 | Plant response rating, Purslane ([15]; 31 g ai/ha, Preemergence): 0 | Plant response rating, Purslane ([15]; 62 g ai/ha, Preemergence): 0 | Plant response rating, Purslane ([15]; Postemergence, 8 g ai/ha): 0 | Plant response rating, Purslane ([15]; Postemergence, 16 g ai/ha): 0 | Plant response rating, Purslane ([15]; Postemergence, 31 g ai/ha): 0 | Plant response rating, Purslane ([15]; Postemergence, 62 g ai/ha): 0 | Plant response rating, Dallisgrass ([16]; 8 g ai/ha, Preemergence): 0 | Plant response rating, Dallisgrass ([16]; 16 g ai/ha, Preemergence): 40 | Plant response rating, Dallisgrass ([16]; 31 g ai/ha, Preemergence): 90 | Plant response rating, Dallisgrass ([16]; 62 g ai/ha, Preemergence): 90 | Plant response rating, Dallisgrass ([16]; Postemergence, 8 g ai/ha): 30 | Plant response rating, Dallisgrass ([16]; Postemergence, 16 g ai/ha): 30 | Plant response rating, Dallisgrass ([16]; Postemergence, 31 g ai/ha): 50 | Plant response rating, Dallisgrass ([16]; Postemergence, 62 g ai/ha): 60 | Plant response rating, Itchgrass ([17]; 16 g ai/ha, Preemergence): 75 | Plant response rating, Itchgrass ([17]; 31 g ai/ha, Preemergence): 75 | Plant response rating, Itchgrass ([17]; 62 g ai/ha, Preemergence): 75 | Plant response rating, Itchgrass ([17]; Postemergence, 8 g ai/ha): 30 | Plant response rating, Itchgrass ([17]; Postemergence, 16 g ai/ha): 40 | Plant response rating, Itchgrass ([17]; Postemergence, 31 g ai/ha): 70 | Plant response rating, Itchgrass ([17]; Postemergence, 62 g ai/ha): 70
